Laboratory results taken from patent US20170119806A1, “[…] LACTONE DERIVATIVES AND METHODS OF MAKING AND USING THEREOF” (OHIO STATE INNOVATION FOUNDATION, priority 2014, published 2017).
“Also recorded” adds a separate entry of the source.

Assays:
Toxicity of PL-C in mice = format: in vivo; conditions: up to 500 mg PL-C/kg body weight
Description: The findings discussed herein provide an avenue to prevent or treat cancer using natural products and their derivatives through enhancing NK cell immuno-surveillance. […] Developing less toxic drugs is important for preventing or treating some cancers, especially thr those which are dominant in children or in elderly populations, such as AML AML primarily affects older adults: the median age at diagnosis is >65 years (Estey E and Milner H. Lancet 2006, 368, 18941907; Yanada M and Naoe T. Int. J. Hematol. 2012, 96, 186-193). The 5 year survival rate of AML in older adults remains under 10% (Stein E M and Tallman M S. Int J. Hematol 2012, 96, 164-170). Elderly AML patients are less able than younger patients to tolerate effective therapies such as intensive chemotherapy and allogeneic stem cell transplantation.

topo IIα = topo IIα (Homo sapiens, UniProt P11388); assay: Topoisomerase II assay (DNA cleavage/relaxation); format: biochemical; conditions: 100 μM test compound
Description: The formation of linear DNA was detected by separating the SDS-treated reaction products using ethidium bromide gel electrophoresis and quantified by accounting for the relationship between fluorescence and relative band intensity for open circular (OC), linear (LNR), supercoiled (SC), and relaxed (RLX) configurations of DNA.
Topoisomerase II Assay. […] The formation of linear DNA was detected by separating the SDS-treated reaction products using ethidium bromide gel electrophoresis by a modification of a previously described procedure (Hasinoff B B et al. Mol. Pharmacol. 2005, 67, 937-947). In this system, topo II-mediated catalytic conversion of supercoiled pBR322 DNA to the “relaxed” form of plasmic' DNA can also be observed. A 20 μL cleavage assay reaction mixture contained 250 ng topo IIα protein, 160 ng pBR322 plasmid DNA (NEB, Ipswich, Mass.), 1.0 mM ATP in assay buffer (10 mM Tris-HCl (pH 7.5), 50 mM KCl, 50 mM NaCl, 0.1 mM EDTA, 5 mM MgCl2, 2.5% glycerol), and 100 μM of test compounds or DMSO solvent, as indicated. Assay buffer (17 μL) and test compound/DMSO (1 μL) were mixed and allowed to sit at room temperature for 30 min after which 2 μL of topo IIα was added to initiate the reaction. Tubes were incubated at 37° C. for 15 min, and then quenched with 1% (v/v) SDS/10 mM disodium EDTA/200 mM NaCl. The mixture was treated subsequently with 0.77 mg/mL proteinase K (Sigma) at 55° C. for 60 min to digest the protein, and DNA bands were separated by electrophoresis (18 h at 2 V/cm) on an agarose gel (1.3% w/v) containing 0.7 μg/mL ethidium bromide in TAE buffer pH 8.0 (40 mM Tris base, 0.114% (v/v) glacial acetic acid, 2 mM EDTA). The DNA in the gel was imaged by its fluorescence on a Chemi-Doc XRS+ imager (Bio-Rad, Hercules, Calif.). Linear DNA was quantified by accounting for the relationship between fluorescence and relative band intensity for open circular (QC), linear (LNR), supercoiled (SC), and RLX (relaxed) configurations of DNA (Projan S J et al. Plasmid 1983, 9, 182-190), then calculating % of LNR from the total DNA content in each lane.

[1] = test system: HT-29 human colon cancer cells; assay: Cytotoxicity against HT-29 cells; conditions: read-out: IC50 values toward the HT-29 cells; Table 6; triplicate, two independent experiments
Protocol: (§1) The cytotoxicity of the test compounds was screened against HT-29 cells by a previously reported procedure (Ren Y et al. J. Nat. Prod 2011, 74, 1117-1125). Paclitaxel and etoposide were used as positive controls.
(§2) All arylnaphthalene lignans isolated from P. poilanet in the present study and their semi-synthetic analogues were evaluated for their cytotoxicity against HT-29 human colon cancer cells, using paclitaxel as the positive control (Table 6) (Ren Y et al. J. Nat. Prod 2011, 74, 1117-1125).

[2] = test system: HT-29 human colon cancer cells
Protocol: as §1, §2

CD4+ or CD8+ T cells = assay: T cell IFN-γ production (intracellular flow cytometry in PBMCs); format: cell-based, human; conditions: 10 μM PL-C, 18 h, with IL-12 or IL-15; listed as PL-C
Protocol: (A) Human […] were treated with DMSO vehicle control or 10 μM PL-C for 18 hours in the presence of IL-12 (10 ng/mL) or IL-15 (100 ng/mL), as described in FIG. 37C. The cells were harvested for intracellular flow cytometry to determine the frequency of IFN-γ^+ cells in CD56^−CD3^+[…] or CD56^−CD3^+CD8^+T. Representative data from 1 out of 5 donors are shown. (B) Purified primary NK cells were treated with IL-12 (10 ng/mL) or IL-15 (100 ng/mL) with or without 10 μM PL-C for 8 hours and were sequentially co-cultured with […] labeled ARH-77 cells at various effector/target cell ratios for additional 4 hours. ^51Cr release was measured by a TopCount counter. Data shown are the means of 3 donors. […] Error bars represent S.D. (C) Purified primary NK cells were treated with 10 μM PL-C in the presence of IL-12 (10 ng/mL) (top) or IL-15 (100 ng/mL) (bottom) for 12 hours, and cell pellets were harvested for detecting granzyme A (GZMA), granzyme B (GZMB), perforin (PRF1) and Fas (Fasl) mRNA expression level by real-time RT-PCR. Data shown are the means of 6 donors. p>0.05, vehicle control versus PL-C in all panels. Error bars represent S.D.
Intracellular flow cytometry. […] Data were acquired using an LSRII (BD Biosciences) flow cytometer and analyzed using FlowJo software (Tree Star, Ashland, Oreg.).

Chain of topo IIα (P11388 whole entry): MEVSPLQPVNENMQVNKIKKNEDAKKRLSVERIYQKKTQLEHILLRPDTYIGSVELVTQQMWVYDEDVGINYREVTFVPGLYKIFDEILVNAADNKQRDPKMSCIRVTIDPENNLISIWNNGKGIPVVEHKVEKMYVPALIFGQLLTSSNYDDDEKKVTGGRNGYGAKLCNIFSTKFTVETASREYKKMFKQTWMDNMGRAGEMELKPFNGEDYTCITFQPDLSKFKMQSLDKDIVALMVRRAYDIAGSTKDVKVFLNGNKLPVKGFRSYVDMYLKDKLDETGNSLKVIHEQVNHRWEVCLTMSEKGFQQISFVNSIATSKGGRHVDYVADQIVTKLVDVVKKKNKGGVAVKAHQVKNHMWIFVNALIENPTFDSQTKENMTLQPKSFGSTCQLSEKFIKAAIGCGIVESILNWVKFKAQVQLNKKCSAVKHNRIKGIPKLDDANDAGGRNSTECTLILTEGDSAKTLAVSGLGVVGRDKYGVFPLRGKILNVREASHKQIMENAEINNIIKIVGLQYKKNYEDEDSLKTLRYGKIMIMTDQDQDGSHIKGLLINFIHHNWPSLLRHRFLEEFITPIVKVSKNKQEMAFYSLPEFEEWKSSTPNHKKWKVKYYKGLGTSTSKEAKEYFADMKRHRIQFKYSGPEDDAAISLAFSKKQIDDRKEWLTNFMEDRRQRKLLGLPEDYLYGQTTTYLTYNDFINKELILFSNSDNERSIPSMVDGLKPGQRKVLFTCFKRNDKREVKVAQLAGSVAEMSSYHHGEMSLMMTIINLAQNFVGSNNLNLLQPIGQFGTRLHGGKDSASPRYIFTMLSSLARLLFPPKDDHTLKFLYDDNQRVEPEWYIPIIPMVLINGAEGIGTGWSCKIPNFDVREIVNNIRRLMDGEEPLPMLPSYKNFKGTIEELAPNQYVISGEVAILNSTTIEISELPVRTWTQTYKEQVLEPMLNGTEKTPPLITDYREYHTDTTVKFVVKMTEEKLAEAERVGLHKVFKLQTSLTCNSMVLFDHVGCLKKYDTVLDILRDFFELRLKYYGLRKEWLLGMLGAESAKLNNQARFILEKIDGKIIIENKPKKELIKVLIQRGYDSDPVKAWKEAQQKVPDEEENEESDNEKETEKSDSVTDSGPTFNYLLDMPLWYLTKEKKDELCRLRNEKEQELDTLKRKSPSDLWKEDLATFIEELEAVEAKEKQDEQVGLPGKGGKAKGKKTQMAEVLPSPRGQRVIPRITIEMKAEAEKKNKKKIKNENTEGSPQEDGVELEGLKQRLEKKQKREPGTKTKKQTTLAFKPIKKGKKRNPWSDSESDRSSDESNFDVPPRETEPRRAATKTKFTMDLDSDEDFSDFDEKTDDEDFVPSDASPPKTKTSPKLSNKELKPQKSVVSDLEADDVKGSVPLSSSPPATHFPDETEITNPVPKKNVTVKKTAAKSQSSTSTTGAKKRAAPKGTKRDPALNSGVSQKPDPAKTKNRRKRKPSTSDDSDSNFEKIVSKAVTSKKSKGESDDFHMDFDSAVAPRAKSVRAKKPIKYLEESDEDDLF

For `COc1cc2c(OC3OCC(O)C(O)C3O)c3c(c(-c4ccc5c(c4)OCO5)c2cc1OC)C(=O)OC3` (centres unmarked) [Compound 4, Phyllanthusmin C], the toxicity in mice (Toxicity of PL-C in mice) was “lack of substantial toxicities”, the “topo IIα inhibition (in words)” value (topo IIα) was “not topo Ha inhibitors; also recorded: not topo IIα inhibitors” and the IC50 [1] was 3.2 µM. The “cytotoxicity toward HT-29 cells (in words)” value [2] was “cytotoxic” and the “T cell IFN-γ production” value (CD4+ or CD8+ T cells) was “little or no; also recorded: negligibly activated T cell IFN-γ production; also recorded: few, if any”.
